Common to all, as to assay type: in vivo, Rabbit (New Zealand)
One experiment has as its system pupillary diameter. Briefly: Pupillary diameter measurement, rabbit paracentesis model. As to conditions: 0.5% formulation.
Experiment [1] concerns PGE2 in the aqueous humor. Briefly: Prostaglandin E2 (PGE2) measurement in aqueous humor, rabbit paracentesis model. As to conditions: 0.5% formulation. The protocol: (§1) Each rabbit was placed in a restraint device and tagged with the alphanumeric code. The formulations were instilled (50 μl) into the conjunctival sac of both eyes 180, 120, 90 and 30 min before the first paracentesis; then 15, 30, 90 min after the first paracentesis. To perform the first paracentesis the animals were anaesthetized by intravenous injection of 5 mg/kg Zoletil® (Virbac; 2.5 mg/kg tiletamine HCl and 2.5 mg/kg zolazepam HCl) and one drop of local anesthetic (Novesina®, Novartis) was administered to the eye. Anterior chamber paracentesis was performed with a 26 G needle attached to a tuberculin syringe; the needle was introduced into the anterior chamber through the cornea, taking care not to damage the tissues. Two hours after the first paracentesis, the animals were sacrificed with 0.4 ml Tanax® (Intervet International B.V.) and the second paracentesis was performed. About 100 μl of aqueous humor were removed at the second paracentesis. Aqueous humor was immediately split in four aliquots and stored at −80° C. until analysis. Then both eyes were enucleated and the iris-ciliary body was carefully excised, placed in polypropylene tubes, and stored at −80° C. until analysis.
For the quantitative determination of PGE2 in the aqueous humor we used the PGE2 Immunoassay kit (R&D Systems; Cat. No. KGE004; Lot. No. 240010). Eleven microliters or 16 μl of aqueous humor were diluted to 110 μl or 160 μl with the calibrator diluent solution provided with the kit. One hundred microliters of samples and of standards were load into a 96-well plate and recorded in a plate layout. Samples were treated following the assay procedure described in the kit. A microplate reader (GDV, Italy; model DV 990 B/V6) set at 450 nm (wavelength correction at 540 nm) was used for making the calibration and analyzing the samples.
(§2) Pupillary diameter, PGE2, protein, PMN, and MPO were expressed as mean±SEM. Statistical analysis was performed using one way ANOVA followed by a Newman-Keuls post hoc test. Clinical score was expressed as % of eyes and the statistical analysis was performed using Kruskal-Wallis followed by a Dunn post hoc test. P<0.05 was considered statistically significant in both cases. Prism 4 software (GraphPad Software, Inc.) was used for the analysis and graphs.

Experiment [2] concerns MPO activity in iris-ciliary body. Put plainly: Myeloperoxidase (MPO) activity in iris-ciliary body, rabbit paracentesis model. As for the experimental part: as §1
The activity of MPO was measured as previously described by Williams et al.[5] The iris-ciliary bodies were carefully dried, weighed and immersed in 1 ml of hexa-decyl-trimethyl-ammonium bromide solution. Then, the samples were sonicated for 10 sec on ice by a ultrasound homogenizer (HD 2070, Bandelin electronic), freeze-thawed three times, sonicated for 10 sec and centrifuged at 14,000 g for 10 min to remove cellular debris. An aliquot of the supernatant (40-200 μl) was diluted to 3 ml with the o-dianisidine 2HCl/H2O2 solution. The change in absorbance at 460 nm was continuously monitored for 5 min by a spectrophotometer (UV/Vis Spectrometer Lambda EZ 201; Perkin Elmer). The slope of the line (Δ/min) was determined for each sample and used to calculate the number of units of MPO in the tissue as follows:
Values were expressed as units of MPO/g of tissue.
as §2

The test system of experiment [3] is leukocytes (PMN) in aqueous humor. Briefly: Leukocytes (PMN) measurement in aqueous humor, rabbit paracentesis model. To be noted: 0.5% formulation; second paracentesis; group mean. As for the experimental part:
as §1
For the determination of the number of leukocytes we used a haernocytometer (Improved Neubauer Chamber; Bright-line, Hausser Scientific) and a Polyvar 2 microscope (Reichert-Jung).
as §2

The subject of experiment [4] is iris and conjunctival vessels, anterior chamber. Put plainly: Clinical evaluation by slit lamp (clinical score), rabbit paracentesis model. On the set-up: key to Clinical Score −180 min / Clinical Score −5 min / Clinical Score +115 min: 0=normal; 1=discrete dilatation of iris and conjunctival vessels; 2=moderate dilatation of iris and conjunctival vessels; 3=intense iridal hyperemia with flare in the anterior chamber; 4=intense iridal hyperemia with flare in the anterior chamber and presence of fibrinous exudates. To be noted: 0.5% formulation.

In experiment [5] the test system is protein concentration in the aqueous humor. Briefly: Protein measurement in aqueous humor, rabbit paracentesis model. To be noted: 0.5% formulation, second paracentesis. As for the experimental part: as §1
For protein concentration determination in the aqueous humor we used the Protein Quantification Kit (Fluka; Cat. No. 77371; Lot. No. 1303129). Five microliters of aqueous humor were diluted to 100 μl with water. Twenty microliters of samples and of standards were load into a 96-well plate and recorded in a plate layout. Samples were treated following the assay procedure described in the kit. A microplate reader (GDV, Italy; model DV 990 B/V6) set at 670 nm was used for making the calibration and analyzing the samples.
as §2

Setting [6] is: 5 min before the first paracentesis, raw data per eye.
Setting [7] is: 5 min before the second paracentesis, raw data per eye.

These results are taken from patent US20120316199A1, “COMPOSITIONS AND METHODS FOR TREATING, CONTROLLING, REDUCING, OR AMELIORATING INFLAMMATORY PAIN” (priority 2011, published 2012).

Several values for one entry are separate records, joined by “and”; a condition that tells them apart may be missing. Equal values may be shown once.

As for `CCOC(=O)O[C@]1(C(=O)OCCl)CC[C@H]2[C@@H]3CCC4=CC(=O)C=C[C@]4(C)[C@H]3[C@@H](O)C[C@@]21C` [LE, loteprednol etabonate], the “Pupillary diameter T2: −5 min” value in the experiment on pupillary diameter (setting [6]) was 6.0 mm and 6.5 mm. In addition, in the experiment on pupillary diameter (setting [7]), the “Pupillary diameter T3: +115 min” value is 4.5 mm and 5.0 mm and 5.5 mm and 6.0 mm. Besides, in the experiment on pupillary diameter (basal, raw data per eye), the “Pupillary diameter T1: −180 min” value is 6.0 mm and 6.5 mm. Further, in the experiment with pupillary diameter (group mean, n=8 eyes), the “Mean (mm) Δ(T3 − T1) of pupillary diameter” value is given as −0.9 mm. Further, the “PGE2 in aqueous humor, statistical significance versus CTR” value in experiment [1] (p<0.05) was “statistically significant versus CTR”. The “PGE2 level in aqueous humor, Mean” value in experiment [1] (second paracentesis, group mean) amounted to 0.672 ng/mL. In addition, the “MPO activity in iris-ciliary body” value in experiment [2] (0.5% LE, individual samples collected after the second paracentesis) amounted to 1.01 Unit/g. Also, the “MPO activity in iris-ciliary body, Mean” value in experiment [2] (0.5% formulation, after the second paracentesis, group mean) turned out to be 0.661 MPO Unit/g. Besides, in experiment [3], the “PMN numbers in aqueous humor, Mean” value stood at 28.333 number/μl. Moreover, in experiment [4] (setting [6]), the “Clinical Score −5 min” value is 0. Besides, the “Clinical Score +115 min” value in experiment [4] (setting [7]) is 2 and 1. In addition, in experiment [4] (+115 min, N=8 eyes), the “Percentage of eyes with clinical score 1” value stood at 75% and the “Percentage of eyes with clinical score 2” value is on record as 25%. The “Clinical Score −180 min” value in experiment [4] (basal, raw data per eye) was 0. For the same compound, the “Clinical score, difference versus CTR (vehicle)” value in experiment [4] (p<0.05, Kruskal-Wallis, Dunn) was “significant difference versus CTR”. Also, in experiment [4] (−5 min, N=8 eyes), the “Percentage of eyes with clinical score 0” value worked out at 100%. For the same compound, the “Percentage of eyes with clinical score 0” value in experiment [4] (−180 min (basal), N=8 eyes) came to 100%. In addition, the “Protein level in aqueous humor, Mean” value in experiment [5] (group mean) was found to be 33.905 mg/mL. The “Protein level in aqueous humor, raw data” value in experiment [5] (per eye) was 36.14 mg/mL and 39.10 mg/mL and 34.69 mg/mL and 26.10 mg/mL and 26.30 mg/mL and 28.16 mg/mL and 40.90 mg/mL and 39.85 mg/mL.
